{"source": "patent US20100137449A1", "about": "“SUBSTITUTED 1,3-CYCLOPENTADIONE MULTI-TARGET PROTEIN KINASE MODULATORS OF CANCER, ANGIOGENESIS AND THE INFLAMMATORY PATHWAYS ASSOCIATED THEREWITH” (METAPROTEOMICS, LLC, priority 2007, published 2010)", "assay_in_all_cases": "KinaseProfiler Assay", "key": {"CK1δ(h)": {"biological_target": "CK1δ(h) (Homo sapiens, UniProt P48730)", "sequence (P48730 whole entry)": "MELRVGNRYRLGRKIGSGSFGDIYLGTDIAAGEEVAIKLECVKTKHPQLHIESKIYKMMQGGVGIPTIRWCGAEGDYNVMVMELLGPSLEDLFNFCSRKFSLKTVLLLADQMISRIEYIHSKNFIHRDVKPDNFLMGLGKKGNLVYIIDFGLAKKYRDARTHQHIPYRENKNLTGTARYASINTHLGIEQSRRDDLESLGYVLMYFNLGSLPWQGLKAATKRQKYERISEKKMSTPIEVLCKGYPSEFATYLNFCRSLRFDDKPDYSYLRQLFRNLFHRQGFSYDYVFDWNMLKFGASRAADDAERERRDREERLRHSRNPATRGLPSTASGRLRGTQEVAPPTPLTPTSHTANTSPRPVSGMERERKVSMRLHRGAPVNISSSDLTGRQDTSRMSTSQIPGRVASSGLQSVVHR"}, "Src(1-530)(h)": {"biological_target": "Src(1-530)(h) (Homo sapiens, UniProt P12931)", "sequence (P12931 1-530)": "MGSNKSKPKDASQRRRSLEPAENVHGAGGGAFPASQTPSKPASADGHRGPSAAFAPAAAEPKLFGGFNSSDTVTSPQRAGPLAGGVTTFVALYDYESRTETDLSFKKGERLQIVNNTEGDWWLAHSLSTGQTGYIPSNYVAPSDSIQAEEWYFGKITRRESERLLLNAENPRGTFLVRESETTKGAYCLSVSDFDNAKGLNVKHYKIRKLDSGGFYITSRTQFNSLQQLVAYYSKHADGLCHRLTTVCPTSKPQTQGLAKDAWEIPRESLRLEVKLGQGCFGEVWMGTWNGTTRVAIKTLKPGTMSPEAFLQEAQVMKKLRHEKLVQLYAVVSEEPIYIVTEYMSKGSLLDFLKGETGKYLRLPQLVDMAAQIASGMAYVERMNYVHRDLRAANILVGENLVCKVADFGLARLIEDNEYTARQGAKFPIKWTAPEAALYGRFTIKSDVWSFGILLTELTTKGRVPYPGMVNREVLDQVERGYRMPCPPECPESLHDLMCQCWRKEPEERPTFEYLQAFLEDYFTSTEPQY"}, "EGFR(L861Q)(h)": {"biological_target": "EGFR(L861Q)(h) (Homo sapiens, UniProt P00533, L861Q)"}, "Abl(M351T)(h)": {"biological_target": "Abl(M351T)(h) (Homo sapiens, UniProt P00519, M351T)"}, "IRAK1(h)": {"biological_target": "IRAK1(h) (Homo sapiens, UniProt P51617)", "sequence (P51617 whole entry)": "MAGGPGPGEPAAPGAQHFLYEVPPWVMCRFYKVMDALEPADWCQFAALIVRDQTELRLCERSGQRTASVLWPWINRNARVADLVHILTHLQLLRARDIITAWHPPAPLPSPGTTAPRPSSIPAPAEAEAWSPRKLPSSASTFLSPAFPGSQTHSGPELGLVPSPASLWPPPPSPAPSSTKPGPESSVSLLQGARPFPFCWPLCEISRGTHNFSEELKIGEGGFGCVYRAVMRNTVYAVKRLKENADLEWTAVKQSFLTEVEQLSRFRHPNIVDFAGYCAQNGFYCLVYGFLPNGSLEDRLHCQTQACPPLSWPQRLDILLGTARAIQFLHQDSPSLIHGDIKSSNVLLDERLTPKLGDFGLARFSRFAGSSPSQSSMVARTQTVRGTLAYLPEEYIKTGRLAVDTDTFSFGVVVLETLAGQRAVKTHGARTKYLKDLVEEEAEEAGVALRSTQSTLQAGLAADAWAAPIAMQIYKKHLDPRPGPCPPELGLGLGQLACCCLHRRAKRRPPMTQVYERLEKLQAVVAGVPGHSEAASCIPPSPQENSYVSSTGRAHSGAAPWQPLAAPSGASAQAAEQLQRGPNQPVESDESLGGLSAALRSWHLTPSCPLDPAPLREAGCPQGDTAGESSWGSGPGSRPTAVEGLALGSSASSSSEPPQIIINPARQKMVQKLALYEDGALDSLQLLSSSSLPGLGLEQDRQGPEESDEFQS"}, "EGFR(T790M)(h)": {"biological_target": "EGFR(T790M)(h) (Homo sapiens, UniProt P00533, T790M)"}, "Tie2(Y897S)(h)": {"biological_target": "Tie2(Y897S)(h) (Homo sapiens, UniProt Q02763, Y897S)", "sequence (Q02763 23-1124 Y897S)": "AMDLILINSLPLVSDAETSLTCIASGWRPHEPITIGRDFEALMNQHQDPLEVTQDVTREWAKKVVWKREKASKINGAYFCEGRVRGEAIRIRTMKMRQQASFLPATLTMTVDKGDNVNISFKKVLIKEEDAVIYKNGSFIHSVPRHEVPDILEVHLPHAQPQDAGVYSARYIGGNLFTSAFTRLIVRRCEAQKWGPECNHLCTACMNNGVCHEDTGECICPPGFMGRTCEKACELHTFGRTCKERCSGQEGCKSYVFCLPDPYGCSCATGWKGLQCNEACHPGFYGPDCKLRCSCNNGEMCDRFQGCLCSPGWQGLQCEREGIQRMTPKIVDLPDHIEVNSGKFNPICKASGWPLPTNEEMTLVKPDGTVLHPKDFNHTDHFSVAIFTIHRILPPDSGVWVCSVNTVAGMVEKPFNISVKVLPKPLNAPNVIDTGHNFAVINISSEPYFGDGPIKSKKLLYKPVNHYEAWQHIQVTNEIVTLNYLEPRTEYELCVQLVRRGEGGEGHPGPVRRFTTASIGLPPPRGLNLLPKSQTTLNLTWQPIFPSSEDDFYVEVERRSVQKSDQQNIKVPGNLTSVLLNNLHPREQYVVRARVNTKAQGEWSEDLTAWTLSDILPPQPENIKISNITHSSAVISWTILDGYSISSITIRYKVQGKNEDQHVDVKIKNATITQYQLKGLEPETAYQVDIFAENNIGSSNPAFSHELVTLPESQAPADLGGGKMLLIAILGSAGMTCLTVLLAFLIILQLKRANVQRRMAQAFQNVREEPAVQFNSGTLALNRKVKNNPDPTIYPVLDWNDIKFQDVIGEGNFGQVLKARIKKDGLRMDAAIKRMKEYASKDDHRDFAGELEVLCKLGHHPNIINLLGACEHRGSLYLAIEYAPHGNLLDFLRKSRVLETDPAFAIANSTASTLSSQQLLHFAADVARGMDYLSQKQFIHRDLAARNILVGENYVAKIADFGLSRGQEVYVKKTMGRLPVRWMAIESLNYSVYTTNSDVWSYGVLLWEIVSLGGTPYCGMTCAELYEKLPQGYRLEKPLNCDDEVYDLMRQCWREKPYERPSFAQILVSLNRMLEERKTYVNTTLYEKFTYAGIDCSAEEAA"}, "PKCβI(h)": {"biological_target": "PKCβI(h) (Homo sapiens, UniProt P05771)", "sequence (P05771 whole entry)": "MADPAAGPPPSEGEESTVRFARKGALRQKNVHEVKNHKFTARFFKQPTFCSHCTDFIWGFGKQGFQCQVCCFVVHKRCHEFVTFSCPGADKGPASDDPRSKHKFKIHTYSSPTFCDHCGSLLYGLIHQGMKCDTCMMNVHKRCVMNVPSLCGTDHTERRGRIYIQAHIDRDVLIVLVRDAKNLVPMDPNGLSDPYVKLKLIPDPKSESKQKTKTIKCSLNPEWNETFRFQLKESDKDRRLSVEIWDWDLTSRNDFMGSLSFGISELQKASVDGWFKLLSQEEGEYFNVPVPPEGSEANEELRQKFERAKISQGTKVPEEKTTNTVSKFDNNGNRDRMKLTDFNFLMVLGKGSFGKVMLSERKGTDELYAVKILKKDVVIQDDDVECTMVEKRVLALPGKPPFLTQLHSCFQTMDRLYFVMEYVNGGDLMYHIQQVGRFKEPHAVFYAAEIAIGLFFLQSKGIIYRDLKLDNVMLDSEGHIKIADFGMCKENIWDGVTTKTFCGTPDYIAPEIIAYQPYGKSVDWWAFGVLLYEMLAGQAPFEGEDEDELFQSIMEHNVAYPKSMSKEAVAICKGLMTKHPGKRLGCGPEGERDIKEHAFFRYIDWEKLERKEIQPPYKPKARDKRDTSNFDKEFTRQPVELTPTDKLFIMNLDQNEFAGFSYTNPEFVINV"}, "Blk(m)": {"biological_target": "Blk(m) (Mus musculus, UniProt P16277)"}, "EphB1(h)": {"biological_target": "T1, EphB1(h) (Homo sapiens, UniProt P54762)", "T1 sequence (P54762 18-984)": "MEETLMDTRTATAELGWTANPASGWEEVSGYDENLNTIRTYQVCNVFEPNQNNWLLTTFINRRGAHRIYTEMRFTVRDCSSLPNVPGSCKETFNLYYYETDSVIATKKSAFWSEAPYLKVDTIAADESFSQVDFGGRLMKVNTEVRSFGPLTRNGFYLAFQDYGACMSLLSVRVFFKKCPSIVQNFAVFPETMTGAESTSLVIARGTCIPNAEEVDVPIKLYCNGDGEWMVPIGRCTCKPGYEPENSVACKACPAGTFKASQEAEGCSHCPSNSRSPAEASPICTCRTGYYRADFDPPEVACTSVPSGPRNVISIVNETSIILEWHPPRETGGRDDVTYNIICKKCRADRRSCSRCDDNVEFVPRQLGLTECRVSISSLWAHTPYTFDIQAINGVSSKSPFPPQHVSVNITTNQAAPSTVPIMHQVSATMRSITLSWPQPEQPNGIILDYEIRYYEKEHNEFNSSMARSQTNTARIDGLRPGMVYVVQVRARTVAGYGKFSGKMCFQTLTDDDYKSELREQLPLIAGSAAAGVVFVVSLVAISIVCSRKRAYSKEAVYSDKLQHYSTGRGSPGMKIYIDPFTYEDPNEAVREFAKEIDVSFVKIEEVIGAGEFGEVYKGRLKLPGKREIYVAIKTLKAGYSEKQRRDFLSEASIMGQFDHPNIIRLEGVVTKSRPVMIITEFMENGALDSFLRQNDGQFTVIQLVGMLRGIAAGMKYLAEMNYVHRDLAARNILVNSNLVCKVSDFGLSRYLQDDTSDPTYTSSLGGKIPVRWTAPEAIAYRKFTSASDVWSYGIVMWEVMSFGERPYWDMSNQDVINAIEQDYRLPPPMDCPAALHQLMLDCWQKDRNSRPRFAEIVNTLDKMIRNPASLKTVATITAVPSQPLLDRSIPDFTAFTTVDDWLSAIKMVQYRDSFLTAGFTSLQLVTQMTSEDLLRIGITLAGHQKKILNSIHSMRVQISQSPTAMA"}, "MLCK(h)": {"biological_target": "MLCK(h)"}, "PAK6(h)": {"biological_target": "PAK6(h) (Homo sapiens, UniProt Q9NQU5)", "sequence (Q9NQU5 whole entry)": "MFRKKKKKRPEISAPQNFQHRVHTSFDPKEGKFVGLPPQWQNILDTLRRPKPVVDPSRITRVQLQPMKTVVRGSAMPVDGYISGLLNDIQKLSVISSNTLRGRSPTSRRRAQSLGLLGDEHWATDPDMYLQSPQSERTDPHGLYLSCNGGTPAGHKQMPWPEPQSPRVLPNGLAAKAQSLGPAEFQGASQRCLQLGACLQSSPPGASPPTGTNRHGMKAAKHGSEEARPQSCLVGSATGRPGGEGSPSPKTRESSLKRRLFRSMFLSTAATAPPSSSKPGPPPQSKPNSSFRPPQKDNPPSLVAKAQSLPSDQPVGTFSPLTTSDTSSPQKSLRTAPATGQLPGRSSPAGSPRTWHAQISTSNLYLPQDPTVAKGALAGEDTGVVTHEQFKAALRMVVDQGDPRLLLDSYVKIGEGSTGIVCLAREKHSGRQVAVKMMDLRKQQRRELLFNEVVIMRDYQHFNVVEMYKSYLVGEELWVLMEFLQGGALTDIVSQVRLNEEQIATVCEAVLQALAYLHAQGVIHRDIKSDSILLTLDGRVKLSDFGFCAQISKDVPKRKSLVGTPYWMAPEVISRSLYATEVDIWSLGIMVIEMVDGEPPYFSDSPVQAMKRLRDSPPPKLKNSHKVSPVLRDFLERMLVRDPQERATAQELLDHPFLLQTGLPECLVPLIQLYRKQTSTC"}, "BTK(h)": {"biological_target": "BTK(h) (Homo sapiens, UniProt Q06187)"}, "cKit(V654A)(h)": {"biological_target": "cKit(V654A)(h) (Homo sapiens, UniProt P10721, V654A)", "sequence (P10721 26-976 V654A)": "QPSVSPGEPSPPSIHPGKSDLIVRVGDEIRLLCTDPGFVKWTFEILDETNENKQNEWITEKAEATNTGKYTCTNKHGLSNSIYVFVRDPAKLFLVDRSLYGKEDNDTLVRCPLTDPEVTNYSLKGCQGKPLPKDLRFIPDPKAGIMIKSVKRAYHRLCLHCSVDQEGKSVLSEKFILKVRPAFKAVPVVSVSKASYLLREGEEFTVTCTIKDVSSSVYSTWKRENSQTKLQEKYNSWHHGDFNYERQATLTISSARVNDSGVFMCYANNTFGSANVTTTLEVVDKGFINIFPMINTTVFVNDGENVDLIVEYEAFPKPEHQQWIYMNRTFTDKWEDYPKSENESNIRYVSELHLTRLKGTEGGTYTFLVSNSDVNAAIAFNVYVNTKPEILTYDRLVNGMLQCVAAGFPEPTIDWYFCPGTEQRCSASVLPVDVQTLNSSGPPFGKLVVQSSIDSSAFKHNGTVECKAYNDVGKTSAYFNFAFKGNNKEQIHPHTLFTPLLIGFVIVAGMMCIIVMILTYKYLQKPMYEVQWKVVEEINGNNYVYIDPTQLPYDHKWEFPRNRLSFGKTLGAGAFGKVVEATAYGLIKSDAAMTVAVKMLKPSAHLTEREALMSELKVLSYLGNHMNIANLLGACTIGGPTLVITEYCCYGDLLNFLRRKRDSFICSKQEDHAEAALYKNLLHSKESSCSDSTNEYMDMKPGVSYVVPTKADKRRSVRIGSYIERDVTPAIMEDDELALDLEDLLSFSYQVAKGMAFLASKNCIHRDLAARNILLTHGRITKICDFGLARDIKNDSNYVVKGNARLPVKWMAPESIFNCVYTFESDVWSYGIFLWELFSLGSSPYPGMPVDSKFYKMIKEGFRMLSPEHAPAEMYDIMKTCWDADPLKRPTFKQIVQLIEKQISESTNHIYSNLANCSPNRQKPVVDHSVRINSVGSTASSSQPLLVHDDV"}}, "data": [{"smiles": "CC(C)CCC(=O)[C@]1(O)C(O)=C(C(=O)C(C)C)C(=O)[C@H]1CCC(C)C", "note": "[TH2, tetrahydroiso-cohumulone]", "values": [{"measurement": "kinase inhibition", "setting": "CK1δ(h); 1 μg/ml", "value": "105% of control"}, {"measurement": "kinase inhibition", "setting": "CK1δ(h); 5 μg/ml", "value": "112% of control"}, {"measurement": "kinase inhibition", "setting": "CK1δ(h); 25 μg/ml", "value": "108% of control"}, {"measurement": "kinase inhibition", "setting": "CK1δ(h); 50 μg/ml", "value": "80% of control"}, {"measurement": "kinase inhibition", "setting": "CK1δ(h); 100 μg/ml", "value": "53% of control"}, {"measurement": "kinase inhibition", "setting": "Src(1-530)(h); 1 μg/ml", "value": "103% of control"}, {"measurement": "kinase inhibition", "setting": "Src(1-530)(h); 5 μg/ml", "value": "105% of control"}, {"measurement": "kinase inhibition", "setting": "Src(1-530)(h); 25 μg/ml", "value": "105% of control"}, {"measurement": "kinase inhibition", "setting": "Src(1-530)(h); 50 μg/ml", "value": "102% of control"}, {"measurement": "kinase inhibition", "setting": "Src(1-530)(h); 100 μg/ml", "value": "75% of control"}, {"measurement": "kinase inhibition", "setting": "EGFR(L861Q)(h); 1 μg/ml", "value": "98% of control"}, {"measurement": "kinase inhibition", "setting": "EGFR(L861Q)(h); 5 μg/ml", "value": "91% of control"}, {"measurement": "kinase inhibition", "setting": "EGFR(L861Q)(h); 25 μg/ml", "value": "94% of control"}, {"measurement": "kinase inhibition", "setting": "EGFR(L861Q)(h); 50 μg/ml", "value": "99% of control"}, {"measurement": "kinase inhibition", "setting": "EGFR(L861Q)(h); 100 μg/ml", "value": "93% of control"}, {"measurement": "kinase inhibition", "setting": "Abl(M351T)(h); 1 μg/ml", "value": "92% of control"}, {"measurement": "kinase inhibition", "setting": "Abl(M351T)(h); 5 μg/ml", "value": "95% of control"}, {"measurement": "kinase inhibition", "setting": "Abl(M351T)(h); 25 μg/ml", "value": "89% of control"}, {"measurement": "kinase inhibition", "setting": "Abl(M351T)(h); 50 μg/ml", "value": "75% of control"}, {"measurement": "kinase inhibition", "setting": "Abl(M351T)(h); 100 μg/ml", "value": "56% of control"}, {"measurement": "kinase inhibition", "setting": "IRAK1(h); 1 μg/ml", "value": "99% of control"}, {"measurement": "kinase inhibition", "setting": "IRAK1(h); 5 μg/ml", "value": "112% of control"}, {"measurement": "kinase inhibition", "setting": "IRAK1(h); 25 μg/ml", "value": "37% of control"}, {"measurement": "kinase inhibition", "setting": "IRAK1(h); 50 μg/ml", "value": "39% of control"}, {"measurement": "kinase inhibition", "setting": "IRAK1(h); 100 μg/ml", "value": "39% of control"}, {"measurement": "kinase inhibition", "setting": "EGFR(T790M)(h); 1 μg/ml", "value": "106% of control"}, {"measurement": "kinase inhibition", "setting": "EGFR(T790M)(h); 5 μg/ml", "value": "104% of control"}, {"measurement": "kinase inhibition", "setting": "EGFR(T790M)(h); 25 μg/ml", "value": "104% of control"}, {"measurement": "kinase inhibition", "setting": "EGFR(T790M)(h); 50 μg/ml", "value": "100% of control"}, {"measurement": "kinase inhibition", "setting": "EGFR(T790M)(h); 100 μg/ml", "value": "102% of control"}, {"measurement": "kinase inhibition", "setting": "Tie2(Y897S)(h); 1 μg/ml", "value": "82% of control"}, {"measurement": "kinase inhibition", "setting": "Tie2(Y897S)(h); 5 μg/ml", "value": "46% of control"}, {"measurement": "kinase inhibition", "setting": "Tie2(Y897S)(h); 25 μg/ml", "value": "27% of control"}, {"measurement": "kinase inhibition", "setting": "Tie2(Y897S)(h); 50 μg/ml", "value": "35% of control"}, {"measurement": "kinase inhibition", "setting": "Tie2(Y897S)(h); 100 μg/ml", "value": "32% of control"}, {"measurement": "kinase inhibition", "setting": "PKCβI(h); 1 μg/ml", "value": "105% of control"}, {"measurement": "kinase inhibition", "setting": "PKCβI(h); 5 μg/ml", "value": "110% of control"}, {"measurement": "kinase inhibition", "setting": "PKCβI(h); 25 μg/ml", "value": "93% of control"}, {"measurement": "kinase inhibition", "setting": "PKCβI(h); 50 μg/ml", "value": "95% of control"}, {"measurement": "kinase inhibition", "setting": "PKCβI(h); 100 μg/ml", "value": "92% of control"}, {"measurement": "kinase inhibition", "setting": "Blk(m); 1 μg/ml", "value": "108% of control"}, {"measurement": "kinase inhibition", "setting": "Blk(m); 5 μg/ml", "value": "115% of control"}, {"measurement": "kinase inhibition", "setting": "Blk(m); 25 μg/ml", "value": "96% of control"}, {"measurement": "kinase inhibition", "setting": "Blk(m); 50 μg/ml", "value": "72% of control"}, {"measurement": "kinase inhibition", "setting": "Blk(m); 100 μg/ml", "value": "53% of control"}, {"measurement": "kinase inhibition", "setting": "EphB1(h); 1 μg/ml", "value": "127% of control"}, {"measurement": "kinase inhibition", "setting": "EphB1(h); 5 μg/ml", "value": "82% of control"}, {"measurement": "kinase inhibition", "setting": "EphB1(h); 25 μg/ml", "value": "144% of control"}, {"measurement": "kinase inhibition", "setting": "EphB1(h); 50 μg/ml", "value": "195% of control"}, {"measurement": "kinase inhibition", "setting": "EphB1(h); 100 μg/ml", "value": "105% of control"}, {"measurement": "kinase inhibition", "setting": "MLCK(h); 1 μg/ml", "value": "98% of control"}, {"measurement": "kinase inhibition", "setting": "MLCK(h); 5 μg/ml", "value": "96% of control"}, {"measurement": "kinase inhibition", "setting": "MLCK(h); 25 μg/ml", "value": "105% of control"}, {"measurement": "kinase inhibition", "setting": "MLCK(h); 50 μg/ml", "value": "93% of control"}, {"measurement": "kinase inhibition", "setting": "MLCK(h); 100 μg/ml", "value": "86% of control"}, {"measurement": "kinase inhibition", "setting": "PAK6(h); 1 μg/ml", "value": "85% of control"}, {"measurement": "kinase inhibition", "setting": "PAK6(h); 5 μg/ml", "value": "113% of control"}, {"measurement": "kinase inhibition", "setting": "PAK6(h); 25 μg/ml", "value": "90% of control"}, {"measurement": "kinase inhibition", "setting": "PAK6(h); 50 μg/ml", "value": "89% of control"}, {"measurement": "kinase inhibition", "setting": "PAK6(h); 100 μg/ml", "value": "42% of control"}, {"measurement": "kinase inhibition", "setting": "BTK(h); 1 μg/ml", "value": "98% of control"}, {"measurement": "kinase inhibition", "setting": "BTK(h); 5 μg/ml", "value": "96% of control"}, {"measurement": "kinase inhibition", "setting": "BTK(h); 25 μg/ml", "value": "67% of control"}, {"measurement": "kinase inhibition", "setting": "BTK(h); 50 μg/ml", "value": "59% of control"}, {"measurement": "kinase inhibition", "setting": "BTK(h); 100 μg/ml", "value": "47% of control"}, {"measurement": "kinase inhibition", "setting": "cKit(V654A)(h); 1 μg/ml", "value": "100% of control"}, {"measurement": "kinase inhibition", "setting": "cKit(V654A)(h); 5 μg/ml", "value": "101% of control"}, {"measurement": "kinase inhibition", "setting": "cKit(V654A)(h); 25 μg/ml", "value": "112% of control"}, {"measurement": "kinase inhibition", "setting": "cKit(V654A)(h); 50 μg/ml", "value": "88% of control"}, {"measurement": "kinase inhibition", "setting": "cKit(V654A)(h); 100 μg/ml", "value": "75% of control"}]}]}
